Measurements: US3980794A, “Method for promoting growth of poultry with 3-(5-nitro-2-imidazolyl)pyrazoles” (Eli Lilly and Company, priority 1975, dated 1976)
≈ marks a conversion by molar mass, not a printed value.

Assays:
P. multocida = assay: Oral activity against P. multocida in turkeys (Experiment 5B); type: in vivo; conditions: 100 g./ton in feed
Salmonella choleraesuis = assay: In vivo activity against Salmonella choleraesuis in pigs (Experiment 14)
Method: The in vivo activity of compound 1 against Salmonella choleraesuis was determined in the following manner.
Twenty-four healthy feeder pigs were purchased from a local farm and brought to the research facility where they were weighed individually and identified by ear tag. Four groups of six pigs each were formed so that the average pig weight per group was similar.
Two groups of pigs were given compound 1 at a level of 50 g./ton in the feed. The remaining two groups of pigs were fed the same basal ration without compound 1. Twenty-four hours after initiation of the compound 1 feed treatment, all four groups were challenged orally using 10 ml. of a broth culture of Salmonella choleraesuis.
The pigs were weighed weekly throughout the duration of the experiment and on the 28th day postsalmonella challenge, each surviving pig was killed and the salmonella-caused lesions were recorded. Chart 14, which follows, contains a summary of the results from the trial.

[1] = Growth promotion efficacy in broiler chicks (Experiment 7); type: in vivo; conditions: for F/G (feed conversion) / Wt. Gn. (average weight gain) / % Impr. in feed conversion / % Impr. in weight gain: 21 days; for % Impr. in feed conversion / % Impr. in weight gain: compared to contemporary control
Description: 5-Amino-1-methyl-3-(1-methyl-5-nitro-2-imidazolyl)pyrazole-4-carbonitrile, compound 1, was fed to broiler chicks to evaluate its growth promotion efficacy.
The compound was fed at levels of 10, 25 and 50 g./ton of typical broiler rations (set forth below) to a total of 120 replicates of 8 birds each in four time-replicated studies.
All the birds in the tests were pre-brooded for seven days in floor pens before being placed on treatment. The treatment period extended for 21 days in starter batteries. Feed and water were provided ad libitum at all times. A nontreated feed was fed during the pre-brood period.
The results of the studies are presented in Chart 8. In the chart, column 1 gives the identification of the test compound; column 2, the level of administration of the test compound in the feed; column 3, the number of replicates per treatment; column 4, the average weight gain in grams; column 5, the percent improvement in weight gain; column 6, the feed conversion, which is the ratio of the feed consumed (F) to the weight gained (G); and column 7, the percent improvement in feed conversion.
All 10 and 50 g. data were obtained using Diet 1. The 25 g. data were obtained using Diet 1 (25%) and Diet 2 (75%).

Aeromonas liquefaciens = assay: In vitro activity against fish bacterial pathogens, tube dilution (Experiment 13); conditions: Aeromonas hydrophila, read-out: minimum inhibitory concentration (MIC), Aeromonas liquetaciens
Salmonella typhimurium = assay: Activity against Salmonella typhimurium in chicks when administered in the feed (Experiment 4); type: in vivo; conditions: for Final Avg. Chicken Wt.: tenth day
Method: The activity of certain of the nitroimidazoles against Salmonella typhimurium in chicks when administered in the feed was determined.
One-day-old chicks, divided into groups of 12, were given compound 1, 6, or 7 in the feed at levels of 100 g. per ton, 50 g. per ton, 25 g. per ton, and 10 g. per ton continuously throughout the experiments. Several replicates of nonmedicated infected control groups were included. Later on day 1, all replicates were given 50.0 ml. of a tryptose broth culture of S. typhimurium as their initial liquid for drinking. This was placed in the cage waterer and served as the challenge.
Daily records of mortality were maintained and survivors were weighed on the tenth day of the experiment, the day of termination. The compounds tested are identified by the numbers 1, 6, and 7, as set forth hereinabove. In the chart, column 1 lists the test compound; column 2, the dosage level of test compound in grams per ton of feed; column 3 lists the number of replicates run on each compound at each dosage level; column 4 lists the survival ratio; and column 5, the final average chicken weight.

Salmonella dublin = assay: In vivo activity against Salmonella dublin in calves (Experiment 11)
Method: The in vivo activity of compound 1 against Salmonella dublin was determined in the following manner.
The calves for the in vivo experiment were purchased from a commercial source. Thirty-two calves were brought to the research facility where they were weighed individually and identified by ear tag. Each calf weighed about 90 pounds. The calves were then randomly divided by weight into eight groups of four calves each. Rectal swabs for Salmonella dublin and Escherichia coli isolation were obtained before treatment was started.
Four groups of four calves each were treated with the test compound. Treatment was started 24 hours after challenge with Salmonella dublin and continued for six consecutive days. Treatment was accomplished by oral administration twice daily of gelatin capsules of test compound 1. During the treatment, rectal swabs were taken daily of each calf and bacterial isolations for salmonella species were run. At the end of the trial, rectal swabs for E. coli and salmonella species were taken again. The trials were terminated the day following the last treatment, at which time the calves were weighed and sacrificed.
In the chart, column 1 records the dose rate/day/calf; column 2, the dose rate in mg./lb.; column 3, the survival ratio observed; and column 4, the occurrence of salmonella isolates obtained at necropsy.

Pseudomonas sp. = assay: In vitro activity against fish bacterial pathogens, tube dilution (Experiment 13); type: cell-based; conditions: tryptose broth, overnight, 37°C., read-out: minimum inhibitory concentration (MIC), Pseudomonas
[2] = 50 g./ton continuous, total of both replicates
[3] = 25 g./t. fed, Diet 1 (25%) and Diet 2 (75%)
[4] = 100 mg./day oral (1.25 mg./lb.)

Cn1nc(-c2ncc([N+](=O)[O-])n2C)c(C#N)c1N [Compound 1, 5-Amino-1-methyl-3-(1-methyl-5-nitro-2-imidazolyl)pyrazole-4-carbonitrile]
Culture Isolation P. multocida (P. multocida): 0/5
Survival Ratio (P. multocida): 5/5
mortality (Salmonella choleraesuis; 50 g./ton continuous): prevented mortality
Mean Pig Wt. (Salmonella choleraesuis; 50 g./ton continuous, Avg., day 0): 30.0 Lbs.
Mean Pig Wt. (Salmonella choleraesuis; 50 g./ton continuous, Avg., day 7): 31.8 Lbs.
Mean Pig Wt. (Salmonella choleraesuis; 50 g./ton continuous, Avg., day 14): 33.5 Lbs.
Mean Pig Wt. (Salmonella choleraesuis; 50 g./ton continuous, Avg., day 21): 39.4 Lbs.
Mean Pig Wt. (Salmonella choleraesuis; 50 g./ton continuous, Avg., day 28): 45.5 Lbs.
Lesions at Necropsy (Salmonella choleraesuis; 50 g./ton continuous, Rep. 1): 2/6
No. Dead/No. in Grp. (Salmonella choleraesuis; 50 g./ton continuous, Rep. 1): 0/6
Mean Pig Wt. (Salmonella choleraesuis; 50 g./ton continuous, Rep. 1, day 0): 30.2 Lbs.
Mean Pig Wt. (Salmonella choleraesuis; 50 g./ton continuous, Rep. 1, day 7): 32.5 Lbs.
Mean Pig Wt. (Salmonella choleraesuis; 50 g./ton continuous, Rep. 1, day 14): 33.8 Lbs.
Mean Pig Wt. (Salmonella choleraesuis; 50 g./ton continuous, Rep. 1, day 21): 38.8 Lbs.
Mean Pig Wt. (Salmonella choleraesuis; 50 g./ton continuous, Rep. 1, day 28): 44.2 Lbs.
Lesions at Necropsy (Salmonella choleraesuis; 50 g./ton continuous, Rep. 2): 1/6
No. Dead/No. in Grp. (Salmonella choleraesuis; 50 g./ton continuous, Rep. 2): 0/6
Mean Pig Wt. (Salmonella choleraesuis; 50 g./ton continuous, Rep. 2, day 0): 29.7 Lbs.
Mean Pig Wt. (Salmonella choleraesuis; 50 g./ton continuous, Rep. 2, day 7): 31.0 Lbs.
Mean Pig Wt. (Salmonella choleraesuis; 50 g./ton continuous, Rep. 2, day 14): 33.2 Lbs.
Mean Pig Wt. (Salmonella choleraesuis; 50 g./ton continuous, Rep. 2, day 21): 40.0 Lbs.
Mean Pig Wt. (Salmonella choleraesuis; 50 g./ton continuous, Rep. 2, day 28): 46.7 Lbs.
improved weight gain over that of infected pigs (Salmonella choleraesuis; 50 g./ton continuous, average): 4.3 lbs./pig
Lesions at Necropsy (Salmonella choleraesuis; [2]): 3/12
No. Dead/No. in Grp. (Salmonella choleraesuis; [2]): 0/12
control of Salmonella choleraesuis in swine (Salmonella choleraesuis; compound 1 in the feed about 50 g./ton): effective in the control of Salmonella choleraesuis in swine
F/G (feed conversion) ([1]; 10 g./t. fed, Diet 1): 1.580
Wt. Gn. (average weight gain) ([1]; 10 g./t. fed, Diet 1): 580 g
% Impr. in feed conversion ([1]; 10 g./t. fed): 2.35%
% Impr. in weight gain ([1]; 10 g./t. fed): 4.50%
F/G (feed conversion) [1, 3]: 1.751
Wt. Gn. (average weight gain) [1, 3]: 468 g
% Impr. in feed conversion ([1]; 25 g./t. fed): 4.68%
% Impr. in weight gain ([1]; 25 g./t. fed): 6.12%
F/G (feed conversion) ([1]; 50 g./t. fed, Diet 1): 1.578
Wt. Gn. (average weight gain) ([1]; 50 g./t. fed, Diet 1): 564 g
% Impr. in feed conversion ([1]; 50 g./t. fed): 4.54%
% Impr. in weight gain ([1]; 50 g./t. fed): 3.87%
growth promoter effectiveness ([1]; oral to chicks, compound 1 at about 10 to about 50 g. per ton of feed): effective as a growth promoter
MIC (Aeromonas liquefaciens): 3.12 µg/mL (≈ 12.6 µM)
Survival Ratio (Salmonella typhimurium; 10 g./ton in feed): 28/36
Final Avg. Chicken Wt. (Salmonella typhimurium; 10 g./ton in feed): 97 g
Survival Ratio (Salmonella typhimurium; 25 g./ton in feed): 36/36
Final Avg. Chicken Wt. (Salmonella typhimurium; 25 g./ton in feed): 121 g
Survival Ratio (Salmonella typhimurium; 50 g./ton in feed): 36/36
Final Avg. Chicken Wt. (Salmonella typhimurium; 50 g./ton in feed): 116 g
Survival Ratio (Salmonella typhimurium; 100 g./ton in feed): 35/36
Final Avg. Chicken Wt. (Salmonella typhimurium; 100 g./ton in feed): 105 g
Salmonella isolates at necropsy (Salmonella dublin; [4]): 1/4
Survival Ratio (Salmonella dublin; [4]): 4/4
Salmonella isolates at necropsy (Salmonella dublin; 250 mg./day oral (2.5 mg./lb.)): 2/4
Survival Ratio (Salmonella dublin; 250 mg./day oral (2.5 mg./lb.)): 4/4
Salmonella isolates at necropsy (Salmonella dublin; 500 mg./day oral (5 mg./lb.)): 1/4
Survival Ratio (Salmonella dublin; 500 mg./day oral (5 mg./lb.)): 4/4
Salmonella isolates at necropsy (Salmonella dublin; 1000 mg./day oral (11 mg./lb.)): 0/4
Survival Ratio (Salmonella dublin; 1000 mg./day oral (11 mg./lb.)): 4/4
salmonella isolates from organs of treated calves (Salmonella dublin; at termination of the trial): reduced number of salmonella isolates
control of Salmonella dublin in calves (Salmonella dublin; compound 1 oral, about 100 to about 1000 mg./day/calf): effective in controlling Salmonella dublin in calves
MIC (Pseudomonas sp.): 6.25 µg/mL (≈ 25.3 µM)

COC=Nc1c(C#N)c(-c2ncc([N+](=O)[O-])n2C)nn1C [Compound 6, Methyl N-[4-cyano-1-methyl-3-(1-methyl-5-nitro-2-imidazolyl)pyrazol-5-yl]formimidate]
Culture Isolation P. multocida (P. multocida): 0/5
Survival Ratio (P. multocida): 5/5
Survival Ratio (Salmonella typhimurium; 10 g./ton in feed): 33/36
Final Avg. Chicken Wt. (Salmonella typhimurium; 10 g./ton in feed): 110 g
Survival Ratio (Salmonella typhimurium; 25 g./ton in feed): 36/36
Final Avg. Chicken Wt. (Salmonella typhimurium; 25 g./ton in feed): 119 g
Survival Ratio (Salmonella typhimurium; 50 g./ton in feed): 35/36
Final Avg. Chicken Wt. (Salmonella typhimurium; 50 g./ton in feed): 125 g
Survival Ratio (Salmonella typhimurium; 100 g./ton in feed): 33/36
Final Avg. Chicken Wt. (Salmonella typhimurium; 100 g./ton in feed): 101 g

CCCCOC=Nc1c(C#N)c(-c2ncc([N+](=O)[O-])n2C)nn1C [Compound 7, Butyl N-[4-Cyano-1-methyl-3-(1-methyl-5-nitro-2-imidazolyl)-pyrazol-5-yl]formimidate]
Culture Isolation P. multocida (P. multocida): 0/5
Survival Ratio (P. multocida): 5/5
Survival Ratio (Salmonella typhimurium; 10 g./ton in feed): 25/36
Final Avg. Chicken Wt. (Salmonella typhimurium; 10 g./ton in feed): 100 g
Survival Ratio (Salmonella typhimurium; 25 g./ton in feed): 34/36
Final Avg. Chicken Wt. (Salmonella typhimurium; 25 g./ton in feed): 117 g
Survival Ratio (Salmonella typhimurium; 50 g./ton in feed): 36/36
Final Avg. Chicken Wt. (Salmonella typhimurium; 50 g./ton in feed): 121 g
Survival Ratio (Salmonella typhimurium; 100 g./ton in feed): 33/36
Final Avg. Chicken Wt. (Salmonella typhimurium; 100 g./ton in feed): 102 g
